Entries after “also recorded” stand apart in the source; their conditions may differ.

From patent publication US20070225363A1, “Methods and Agents for Inhibiting Dynamin-Dependent Endocytosis” (the University of Newcastle Research Associates Ltd., priority 2003, published 2007) come the findings set out here.

The target of one experiment is dynamin I (Ovis aries, UniProt A0ACI6NZN1). Briefly: [α-32P]-GTP binding assay, dynamin I. Details: species or system sheep. The protocol: The [α-^32P]-GTP-binding assay was performed in the wells of a 96-well microtitre plate. Dynamin (0.2 μg/well) was added to GTPase buffer and incubated for 10 min at 4 C in the dark. [α-^32P]-GTP (2 μCi/tube) was then added to the reaction and incubated for a further 10 min at 4 C. in the dark. The microtitre plate was then irradiated with a short wavelength ultraviolet lamp at […] for 30 min at a distance of 8 cm. The specificity of photolabelling was determined by comparing the labelling in the presence and absence of 1 mM cold GTP. Samples were then applied to nitrocellulose membranes by aspiration through the wells of a 24 well slot blotter. The nitrocellulose was washed 3 times with PBS and dried. Bound nucleotide was detected by a phosphorimager (Molecular Dynamics).

The subject of experiment [1] is isolated rat brain nerve terminals (synaptosomes). In words: Electron microscopy of synaptosomes. Format: cell-based. The following applies: 100 μM. The procedure:
Synaptosomes were incubated for 5 min in Krebs-like solution containing 1.2 mM Ca^2+ then stimulated with 30 mM KCl for 2 minutes. […] After stimulation, synaptosomes were pelleted in a microfuge for 1 minute at room temperature then fixed by gentle resuspension in ice-cold phosphate buffered saline supplemented with 5% glutaraldehyde. After 1 hr they were centrifuged at low speed (2500 rpm) for 5 min at room temperature to loosely pellet the synaptosomes. The pellets were washed gently 3 times with MOPs buffer with low spins (2500 rpm) for 7 minutes then gently resuspended in a 10% bourine serum albumin (BSA) in water and allowed to stand for 20 min at room temperature. The synaptosomes were then centrifuged again for 7 minutes at low speed (2500 rpm), overlaid with Karnovsky's fixative and incubated at 4° C. overnight. The pellets were subsequently rinsed and fixed in a buffered solution of osmium tetroxide for 3 hours. Synaptosomes were then rinsed and stained for 1 hour in 2% aqueous uranyl acetate prior to being dried by a series of sequential 10 minute washes: 50% ethanol plus 0.1% NaCl, 70% ethanol plus 0.1% NaCl, 95% ethanol plus 0.1% NaCl, 100% ethanol plus 0.1% NaCl twice and 100% acetone twice. […]

The next experiment relates to Swiss 3T3 cells. Briefly: Texas Red-transferrin uptake in Swiss 3T3 cells. The following applies: drug added 15 or 60 minutes before Tf-TxR. The experiment is classed as cell-based. The procedure: (§1) Transferrin (Tf) uptake was analysed in Swiss 3T3 and HER14 cells based on methods previously described (van der Bliek et al., 1993). Briefly, cells were plated to 60% confluency in DMEM medium plus 10% foetal calf serum after which the cells were incubated overnight (8-10 hours) in DMEM minus foetal calf serum. Texas red-transferrin (Tf-TxR, Molecular Probes, Oregon) was added to a final concentration of 5 μg/ml and the cells incubated at 37° C. for 10 minutes. Cell surface staining was removed by incubating the cells in an ice cold acid wash solution (0.2 M acetic acid +0.5 M NaCl, pH 2.8) for 15 minutes. Cells were immediately fixed with 4% paraformaldehyde for 10 minutes then washed 3 times with PBS. Nuclei were stained using DAPI (Molecular Probes, Oregon). Slides were mounted using DABCO and the fluorescence was monitored using a Leica DMLB bright field microscope and SPOT digital camera.

A further experiment has as its system HER14 cells. Briefly: Texas Red-transferrin uptake in HER14 cells. The following applies: drug added 15 or 60 minutes before Tf-TxR. The experiment is classed as cell-based. The procedure:
as §1

dynamin I, sequence (A0ACI6NZN1 entry or part of it): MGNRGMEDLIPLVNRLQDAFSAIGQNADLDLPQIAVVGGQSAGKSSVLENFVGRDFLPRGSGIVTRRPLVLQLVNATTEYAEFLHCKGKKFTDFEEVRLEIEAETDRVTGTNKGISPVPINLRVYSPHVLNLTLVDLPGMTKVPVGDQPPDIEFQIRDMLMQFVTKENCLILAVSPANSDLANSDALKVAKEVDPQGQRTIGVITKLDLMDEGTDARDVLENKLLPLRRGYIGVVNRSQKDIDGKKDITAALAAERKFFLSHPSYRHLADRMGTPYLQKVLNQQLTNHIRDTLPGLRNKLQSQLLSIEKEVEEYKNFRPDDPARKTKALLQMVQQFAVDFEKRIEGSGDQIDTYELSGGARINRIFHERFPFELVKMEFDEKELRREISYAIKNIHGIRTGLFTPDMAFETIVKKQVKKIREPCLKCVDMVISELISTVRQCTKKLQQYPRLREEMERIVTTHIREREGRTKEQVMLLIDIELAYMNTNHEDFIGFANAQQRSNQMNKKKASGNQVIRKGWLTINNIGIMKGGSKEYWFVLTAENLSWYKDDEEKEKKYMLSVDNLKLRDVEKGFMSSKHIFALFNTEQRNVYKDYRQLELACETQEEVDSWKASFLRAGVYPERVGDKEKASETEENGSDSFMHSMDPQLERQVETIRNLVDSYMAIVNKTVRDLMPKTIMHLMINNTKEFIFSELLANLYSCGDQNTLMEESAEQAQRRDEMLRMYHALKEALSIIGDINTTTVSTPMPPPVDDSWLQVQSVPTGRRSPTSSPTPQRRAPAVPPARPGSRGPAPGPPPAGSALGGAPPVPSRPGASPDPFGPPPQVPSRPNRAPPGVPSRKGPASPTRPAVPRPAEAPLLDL

For `N#C/C(=C\c1ccc(O)c(O)c1)C(=O)NCCCNC(=O)/C(C#N)=C/c1ccc(O)c(O)c1` [bis-tyrphostin], the “[α-32P]-GTP binding to dynamin I in the presence of drug” value at dynamin I was “not seen to decrease; also recorded: not affected”. The “morphology of depolarised synaptosomes” value in experiment [1] (depolarised with KCl) is on record as “massive depletion of synaptic vesicles”. For the same molecule, the “morphology of unstimulated synaptosomes” value in experiment [1] (unstimulated) is reported as “no effect on their morphology”. The “internalisation of texas-red labelled transferrin into Swiss 3T3 cells” value with Swiss 3T3 cells was “very large decrease in transferrin staining; also recorded: inhibited”. Besides, the “internalisation of texas-red labelled transferrin into HER14 cells” value in the experiment with HER14 cells was “very large decrease in transferrin staining; also recorded: inhibited”.
